Series [1] can be described thus: Slurry interconversion of solid forms with Form A. The class given is physicochemical. The note with it: slurry of the form together with Form A; resulting form (time).
Series [2] is described as follows: Solid form stability under ambient conditions. The series is classed as physicochemical. As for the experimental part: Samples were prepared from Compound I Form A solids or from samples generated from these solids. Form designation for the materials was based on X-ray powder diffraction (XRPD). Care was taken to protect samples from light, unless stated otherwise. Prior to characterization, solids were stored as follows: Form A and Form B (may have contained Form A solids as well) under ambient conditions, Form E and Form H over desiccant in a freezer, Form C in contact with mother liquor in a refrigerator, Form D in contact with mother liquor in a freezer, and Form I in contact with mother liquor under ambient conditions or in a freezer. Due to apparent instability of Form D, all characterization data except solution proton nuclear magnetic resonance spectroscopy (H-NMR) were collected for Form D on the same day. Although the ^1H-NMR analysis was not run until a few days later, the solution for the analysis was prepared on the same day as the rest of the characterization.
A crystal prepared from cold acetone solution was indexed. The indexing solution was determined to be an orthorhombic unit cell with the following cell parameters and calculated volume: a=9.093, b=15.581, c=23.141 Å, V=3278.57(9) Å^3. The formula weight was determined to be 598.81 g/mol. The cell parameters are similar to the cell obtained from the Compound I Form J crystal structure. […]

A short description of series [3]: Form N solvent removal attempts (heating, vacuum drying, slurry), resulting form by XRPD. The class given is physicochemical. The note with it: for XRPD result after vacuum drying: 43 mg, 42° C. vac dry 22 hours at 20 mTorr. The procedure:
The resulting solids were characterized by proton NMR spectroscopy. […] Subsequently, the dried sample was characterized by DSC. The observed results are subject to the conditions used at the time of analysis. […] The remaining solids (43 mg) were dried for approximately 22 hours in a vacuum oven at approximately 42° C., at approximately 20 mTorr. The weight loss was not determined but the dried solids were characterized by XRPD.
Solids were recovered via vacuum filtration, washing with acetonitrile (4×1 mL). The solids were left on the filter under vacuum for several minutes to dry the solids. […] In another embodiment, 309.5 mg of solid were slurried in water (4 mL) for approximately 24.5 hours. Solids were recovered via vacuum filtration, washing with water (2×1 mL). The solids were left on the filter under vacuum for approximately 1.5 hours to dry the solids.

Series [4] in a line: Solubility assessment of Compound I Form A in solvents and solvent mixtures (visual observation). The series is classed as physicochemical.
The subject of series [5] is patients. The note with it: human, in vivo.
Series [6] has as its system patients. In words: Toxicity and adverse events in clinical studies of Compound I. As to conditions: early development; out of more than 450 patients.

Values after ≈ are worked out from the molar mass of the structure shown. “Also recorded” adds a separate entry of the source. Like-named read-outs stand apart in the source and are kept apart here.

As for `C/C=C1\NC(=O)[C@H]2CSSCC/C=C/[C@H](CC(=O)N[C@H](C(C)C)C(=O)N2)OC(=O)[C@H](C(C)C)NC1=O` [Form C, romidepsin], the Slurry interconversion entry in series [1] was “A + C → A (2 hrs)”.

As to `C/C=C1\NC(=O)[C@H]2CSSCC/C=C/[C@H](CC(=O)N[C@H](C(C)C)C(=O)N2)OC(=O)[C@H](C(C)C)NC1=O` [Form E, romidepsin], the Slurry interconversion entry in series [1] is given as “A + E → A, trace E”.

For `C/C=C1\NC(=O)[C@H]2CSSCC/C=C/[C@H](CC(=O)N[C@H](C(C)C)C(=O)N2)OC(=O)[C@H](C(C)C)NC1=O` [Form B, romidepsin], the Slurry interconversion entry in series [1] is given as “A + B → A (2 hrs)”.

Regarding `C/C=C1\NC(=O)[C@H]2CSSCC/C=C/[C@H](CC(=O)N[C@H](C(C)C)C(=O)N2)OC(=O)[C@H](C(C)C)NC1=O` [Form I, romidepsin], the “Form conversion under ambient conditions” value in series [2] (listed as Compound I Form I) is “converts to Form H”.

For the compound `C/C=C1\NC(=O)[C@H]2CSSCC/C=C/[C@H](CC(=O)N[C@H](C(C)C)C(=O)N2)OC(=O)[C@H](C(C)C)NC1=O` [Form N, romidepsin], the “XRPD result after heating” value in series [3] (10.3 mg, heated to 180° C. by DSC (crimped)) was “Form A + 2 weak peaks”. The “XRPD result after vacuum drying” value in series [3] is listed as “unknown + Form N”; in series [3] (listed as Compound I, Form N) it was “contains XRPD peaks of Form N but exhibits additional unknown peaks”. The “XRPD result after slurry” value in series [3] (152.4 mg, 1 mL acetonitrile, slurry 1 hour) is “pattern T”. Besides, the “HR XRPD result after vacuum drying” value in series [3] (308.3 mg, RT vac dry 5 days at 5 mTorr) is listed as “exhibited Form N; also recorded: Form N + weak peak”. Further, the “HR XRPD result after slurry” value in series [3] (309.5 mg, 4 mL water, slurry 24.5 hours) is “a mixture of Forms C and A; also recorded: Forms C + A + peaks ^g”.

Take `C/C=C1\NC(=O)[C@H]2CSSCC/C=C/[C@H](CC(=O)N[C@@H](C(C)C)C(=O)N2)OC(=O)[C@H](C(C)C)NC1=O` [Form D, romidepsin]: in series [2], the “Form conversion under ambient conditions” value is reported as “converts to Form A”. In addition, in series [1], the Slurry interconversion entry is “A + D → A, trace C”.

With `C/C=C1\NC(=O)[C@H]2CSSCC/C=C/[C@H](CC(=O)N[C@H](C(C)C)C(=O)N2)OC(=O)[C@H](C(C)C)NC1=O` [Form A, romidepsin], the solubility was more than 100 mg/mL in series [4] (2,2,2-trifluoroethanol (TFE), organic solvent or mixture, thermodynamic from solid, 2,2,2-trifluoroethanol (TFE), ambient temperature, reported values <= actual solubility, approximate, read-out: Solubility); 158.9 mg/mL (≈ 294 mM) in series [4] (2,2,2-trifluoroethanol (TFE), ambient temperature, reported values <= actual solubility, approximate, listed as Compound I, Form A); 12.5 mg/mL (≈ 23.1 mM) in series [4] (2-butanone (MEK), organic solvent or mixture, thermodynamic from solid, 2-Butanone (MEK), ambient temperature, reported values <= actual solubility, approximate, read-out: Solubility); 97 mg/mL (≈ 179 mM) in series [4] ((0.1:0.1) TFE:DCM, organic solvent or mixture, thermodynamic from solid, (0.1:0.1) TFE:DCM, ambient temperature, reported values <= actual solubility, approximate, read-out: Solubility); 38 mg/mL (≈ 70.3 mM) in series [4] ((0.5:0.1) acetone:DCM, organic solvent or mixture, thermodynamic from solid, (0.5:0.1) Acetone:DCM, ambient temperature, reported values <= actual solubility, approximate, read-out: Solubility); 20.6 mg/mL (≈ 38.1 mM) in series [4] ((1:0.1) 2-butanone:TFE, organic solvent or mixture, thermodynamic from solid, (1:0.1) 2-Butanone:TFE, ambient temperature, reported values <= actual solubility, approximate, read-out: Solubility). Moreover, the solubility in series [4] ((1:0.1) toluene:TFE, organic solvent or mixture, thermodynamic from solid, (1:0.1) Toluene:TFE, ambient temperature, reported values <= actual solubility, approximate, read-out: Solubility) was 21.4 mg/mL (≈ 39.6 mM); in series [4] ((1:0.2) acetonitrile (ACN):TFE, organic solvent or mixture, thermodynamic from solid, (1:0.2) Acetonitrile (ACN):TFE, ambient temperature, reported values <= actual solubility, approximate, read-out: Solubility) it was 17.9 mg/mL (≈ 33.1 mM); in series [4] ((1:0.2) ethanol:TFE, organic solvent or mixture, thermodynamic from solid, (1:0.2) Ethanol:TFE, ambient temperature, reported values <= actual solubility, approximate, read-out: Solubility), 16.3 mg/mL (≈ 30.1 mM); in series [4] ((1:0.5) dioxane:acetone, organic solvent or mixture, thermodynamic from solid, (1:0.5) Dioxane:Acetone, ambient temperature, reported values <= actual solubility, approximate, read-out: Solubility) it was 13.3 mg/mL (≈ 24.6 mM); in series [4] ((1:1) 2-propanol:acetone, 60 °C, organic solvent or mixture, thermodynamic from solid, (1:1) 2-Propanol:Acetone, hot plate set to 60° C., reported values <= actual solubility, approximate, read-out: Solubility) it was 11.5 mg/mL (≈ 21.3 mM); in series [4] ((1:1) ethanol/IPA, 70 °C, organic solvent or mixture, thermodynamic from solid, (1:1) Ethanol/IPA, hot plate set to 70° C., reported values <= actual solubility, approximate, read-out: Solubility), 28 mg/mL (≈ 51.8 mM). Also, the solubility in series [4] ((1:3) ethanol/IPA, 70 °C, organic solvent or mixture, thermodynamic from solid, (l:3) Ethanol/IPA, hot plate set to 70° C., reported values <= actual solubility, approximate, read-out: Solubility) worked out at 10 mg/mL (≈ 18.5 mM); in series [4] ((1.5:0.5) water:DCM, aqueous with cosolvent or surfactant or cyclodextrin, thermodynamic from solid, (1.5:0.5) Water:DCM, ambient temperature, reported values <= actual solubility, approximate, read-out: Solubility) it was 12.4 mg/mL (≈ 22.9 mM); in series [4] ((1.5:0.8) ethyl acetate:acetone, organic solvent or mixture, thermodynamic from solid, (1.5:0.8) Ethyl Acetate:Acetone, ambient temperature, reported values <= actual solubility, approximate, read-out: Solubility) it was 8.9 mg/mL (≈ 16.5 mM); in series [4] ((1.5:1) heptane:DCM, 60 °C, organic solvent or mixture, thermodynamic from solid, (1.5:1) Heptane:DCM, hot plate set to 60° C., reported values <= actual solubility, approximate, read-out: Solubility), 8 mg/mL (≈ 14.8 mM); in series [4] ((1.5:1) methanol:TFE, 60 °C, organic solvent or mixture, thermodynamic from solid, (1.5:1) Methanol:TFE, hot plate set to 60° C., reported values <= actual solubility, approximate, read-out: Solubility), 8.7 mg/mL (≈ 16.1 mM); in series [4] ((4.5:3) isopropyl ether:ethanol, organic solvent or mixture, thermodynamic from solid, (4.5:3) Isopropyl Ether:Ethanol, ambient temperature, reported values <= actual solubility, approximate, read-out: Solubility), 6.8 mg/mL (≈ 12.6 mM). Also, the solubility in series [4] (Acetone, ambient temperature, reported values <= actual solubility, approximate, listed as Compound I, Form A) is 28.2 mg/mL (≈ 52.2 mM); in series [4] (Dichloromethane (DCM), ambient temperature, reported values <= actual solubility, approximate, listed as Compound I Form A), “over 100 mg/ml”; in series [4] (Dimethylformamide (DMF), ambient temperature, reported values <= actual solubility, approximate, listed as Compound I Form A), “over 100 mg/ml”; in series [4] (Dimethylformamide (DMF), ambient temperature, reported values <= actual solubility, approximate, listed as Compound I, Form A), 248.5 mg/mL (≈ 460 mM); in series [4] (acetone, organic solvent or mixture, thermodynamic from solid, Acetone, ambient temperature, reported values <= actual solubility, approximate, read-out: Solubility), 22.4 mg/mL (≈ 41.4 mM); in series [4] (chloroform, organic solvent or mixture, thermodynamic from solid, Chloroform, ambient temperature, reported values <= actual solubility, approximate, read-out: Solubility), 26.5 mg/mL (≈ 49 mM). Also, the solubility was 23.5 mg/mL (≈ 43.5 mM) in series [4] (ethanol (EtOH), organic solvent or mixture, thermodynamic from solid, Ethanol (EtOH), ambient temperature, reported values <= actual solubility, approximate, read-out: Solubility); 4.6 mg/mL (≈ 8.51 mM) in series [4] (isopropanol (IPA), organic solvent or mixture, thermodynamic from solid, Isopropanol (IPA), ambient temperature, reported values <= actual solubility, approximate, read-out: Solubility); more than 10 mg/mL in series [4] (majority of the solvents and solvent combinations tested, organic solvent or mixture, thermodynamic from solid, majority of solvent and solvent combinations tested, read-out: moderate solubility); 23.6 mg/mL (≈ 43.6 mM) in series [4] (nitromethane, organic solvent or mixture, thermodynamic from solid, Nitromethane, ambient temperature, reported values <= actual solubility, approximate, read-out: Solubility). For the same compound, the Slurry interconversion result in series [1] was “Remains A”.

For `C/C=C1\NC(=O)[C@H]2CSSCC/C=C/[C@H](CC(=O)N[C@H](C(C)C)C(=O)N2)OC(=O)[C@H](C(C)C)NC1=O` [Compound I, romidepsin], in the series on patients [5], the “Severity of observed toxicities” value is given as “mild to moderate”; the “serial serum troponin levels and multiple gated acquisition (MUGA) scans” value is reported as “consistently normal”. Also, the “deaths during clinical investigations” value with patients [6] is 6.
